Data reported in patent US20240285773A1, “METHODS OF TREATING MYELODYSPLASTIC SYNDROME AND MONITORING THE TREATMENT” (Geron Corporation, priority 2023, published 2024).
Where “and” joins values, the source holds several entries; their conditions need not be identical. Equal entries are not always repeated. [nps] = N3'→P5' thiophosphoramidate linkage; {Palm} = palmitoyl lipid

Test system: RBC transfusion-dependent patients with IPSS low or intermediate-1 risk MDS
Assay: Phase 3 trial: RBC transfusion independence (RBC-TI)
Format: in vivo, human
Settings: for TI duration, median: Kaplan-Meier
Method: Patients were randomly assigned (based on a computer-generated schedule) in a 2:1 ratio to receive imetelstat or placebo, administered intravenously every 4 weeks until treatment discontinuation; crossover was not allowed. Randomization was stratified by prior RBC transfusion burden (≥4 to ≤6 or >6 units over an 8-week period during 16 weeks prior to randomization) and IPSS risk group (low or intermediate-1 risk). The starting dose of imetelstat was 7.5 mg/kg every four weeks. If a patient developed grade 3 or 4 hematologic and nonhematologic toxicities, dosing was held and, if necessary, reduced (Tables 2-4).
The primary end point was rate of RBC-TI for 8 consecutive weeks or longer. Key secondary end points included rate of 24-week TI, duration of TI, and the rate of hematologic response (hematologic improvement-erythroid [HI-E], based on modified International Working Group [IWG] 2006 criteria, and HI-E per revised IWG 2018). Additional secondary end points included relative change in number of RBC transfusions received by patients, relative change in hemoglobin, and safety. The changes in mutational status and in patient-reported fatigue over time (assessed by the Functional Assessment of Chronic Illness Therapy [FACIT] Fatigue Scale) were exploratory end points. Subgroup analyses were performed including baseline presence or absence of RS, prior RBC transfusion burden (≥4 to ≤6 or >6 RBC units/8-weeks during a 16-week period prior to randomization), and low or intermediate-1 IPSS risk categories. Subgroup analyses were also performed, including baseline mutation status as well as telomerase activity (TA), telomere lengths (TL), and human telomerase reverse transcriptase (hTERT) levels. Peripheral blood hematology, bone marrow evaluation, mutation assessment, and cytogenetic evaluation were performed centrally and responses assessed by an independent review committee (IRC). Rate of 1-year RBC-TI was reported as a post hoc analysis.
The data cutoff date for this primary analysis was 1 year after the last patient was randomized. All the efficacy analyses for primary and key secondary end points were conducted in the intent-to-treat population. […] The percentages of patients with a response for the two treatment groups were compared with a stratified Cochran-Mantel-Haenszel test at a two-sided significance level of 0.05 adjusting for stratification factors, prior RBC transfusion burden, and IPSS risk category low or intermediate-1. Multiplicity was accounted for by a sequential gatekeeping approach for the primary and key secondary end points, which were tested sequentially in the prespecified order of 8-week TI, followed by 24-week TI. Durations of RBC-TI were calculated by Kaplan-Meier method. Safety analyses were conducted in the safety population (all patients who received ≥1 dose of trial medication).
Treatment: In the patients from imetelstat treatment group, imetelstat sodium was administered as a 2-hour IV infusion every 4 weeks at 7.5 mg/kg. Supportive care, including RBC and platelet transfusions, myeloid growth factors (e.g., G-CSF (granulocyte colony stimulating factor)), and iron chelation therapy was administered as needed on study per investigator discretion. Control group received corresponding treatment without imetelstat.
End points and Analysis: • Primary end point: 8-week RBC TI. Proportion of patients without any RBC transfusion for at least eight consecutive weeks since entry to the trial (8-week TI). • Key secondary end points: • 24-week RBC TI; proportion of patients without any RBC transfusion for at least 24 consecutive weeks since entry to the trial (24-week TI). • Duration of TI; • Hematologic improvement-Erythroid (HI-E).
The 8-week RBC-TI rate was the proportion of patients without any RBC transfusion during any consecutive 8 weeks (56 days) starting from Study Day 1 until subsequent anti-cancer therapy, if any. […]

[1] = mutated transcription regulation genes
[2] = poor-prognosis genes mutated at baseline

Question: “Imetelstat: first-in-class telomerase inhibitor; synthetic lipid-conjugated 13-mer oligonucleotide N3′→P5′-thiophosphoramidate (TAGGGTTAGACAA; all [nps], 5' {Palm}, sugars by position and methylation of C not given here)” was tested. Which “Difference in median RBC-TI duration vs placebo” value (8-week TI responders) did it give?
Answer: 38.3 week

Question: And the “Hazard ratio, duration of RBC-TI vs placebo” value (8-week TI responders)?
Answer: 0.23

Question: What about the “TI duration, median” value (8-week TI responders) of the same substance?
Answer: 51.6 weeks

Question: And the “TI duration, median” value (8-week TI responders, listed as imetelstat)?
Answer: 51.6 weeks and 52 weeks

Question: And the “≥8-week TI rate” value (>1 baseline mutation)?
Answer: 42.7%

Question: And the “≥24-week TI rate” value (>1 baseline mutation)?
Answer: 26.7%

Question: What about the “≥8-week TI rate” value (>2 baseline mutations) of the same substance?
Answer: 45.5%

Question: What about the “≥24-week TI rate” value (>2 baseline mutations) of the same substance?
Answer: 33.3%

Question: And the “≥8-week TI rate” value (>3 baseline mutations)?
Answer: 55.6%

Question: And the “≥24-week TI rate” value (>3 baseline mutations)?
Answer: 33.3%

Question: And the “8-week TI response” value (ASXL1 mutations)?
Answer: 5/18

Question: And the “8-week TI response rate” value (ASXL1 mutations)?
Answer: (27.8) %

Question: And the “≥24-week TI rate” value (ASXL1 mutations)?
Answer: 11.1%

Question: And the “8-week TI response rate” value (ASXL1 mutations, listed as imetelstat)?
Answer: 27.8%

Question: And the “≥8-week TI rate” value (CUX1 mutations)?
Answer: 35.7%

Question: What about the “≥24-week TI rate” value (CUX1 mutations) of the same substance?
Answer: 14.3%

Question: And the “≥8-week TI rate” value (DNMT3A mutations)?
Answer: 31.6%

Question: And the “≥24-week TI rate” value (DNMT3A mutations)?
Answer: 26.3%

Question: And the “8-week TI response” value (ETV6 mutations)?
Answer: 1/2

Question: And the “8-week TI response rate” value (ETV6 mutations)?
Answer: (50.0) %

Question: What about the “8-week TI response rate” value (ETV6 mutations, listed as imetelstat) of the same substance?
Answer: 50%

Question: And the “8-week RBC-TI rate” value (IPSS intermediate-1 risk)?
Answer: 40%

Question: What about the “8-week RBC-TI rate” value (IPSS low risk) of the same substance?
Answer: 40%

Question: What about the “8-week TI rate” value (ITT N=118) of the same substance?
Answer: 39.8% and 40%

Question: And the “16-week TI rate” value (ITT N=118)?
Answer: 31.4%

Question: What about the “16-week TI, patients” value (ITT N=118) of the same substance?
Answer: 37 n

Question: And the “24-week TI rate” value (ITT N=118)?
Answer: 28%

Question: What about the “24-week TI, patients” value (ITT N=118) of the same substance?
Answer: 33 n

Question: And the “≥1-year TI rate” value (ITT N=118)?
Answer: 17.8% and 18%

Question: And the “≥1-year TI, patients” value (ITT N=118)?
Answer: 21 n

Question: What about the “8-week TI, patients” value (ITT N=118, 7.5 mg/kg IV every 4 weeks) of the same substance?
Answer: 47 n

Question: And the “8-week TI response” value (RUNX1 mutations)?
Answer: 0/2

Question: What about the “8-week TI response rate” value (RUNX1 mutations) of the same substance?
Answer: (0) %

Question: And the “≥8-Week RBC-TI” value (SF3B1 hot-spot A744P)?
Answer: 100%

Question: What about the “≥8-Week RBC-TI” value (SF3B1 hot-spot E622D) of the same substance?
Answer: 25.0%

Question: What about the “≥8-Week RBC-TI” value (SF3B1 hot-spot E783K) of the same substance?
Answer: 50.0%

Question: And the “≥8-Week RBC-TI” value (SF3B1 hot-spot H662Q/N/D/Y)?
Answer: 58.3%

Question: And the “≥8-Week RBC-TI” value (SF3B1 hot-spot K666R/T/Q/N)?
Answer: 33.3%

Question: What about the “≥8-Week RBC-TI” value (SF3B1 hot-spot K700E) of the same substance?
Answer: 43.9%

Question: And the “≥8-Week RBC-TI” value (SF3B1 hot-spot R625C/L/G)?
Answer: 57.1%

Question: And the “≥8-Week RBC-TI” value (SF3B1 hot-spot T663P)?
Answer: 100%

Question: And the “≥8-week TI rate” value (TET2 mutations)?
Answer: 50%

Question: What about the “≥24-week TI rate” value (TET2 mutations) of the same substance?
Answer: 40%

Question: And the “8-week TI response” value (TP53 mutations)?
Answer: 2/2

Question: And the “8-week TI response rate” value (TP53 mutations)?
Answer: (100) %

Question: And the “≥8-week TI rate” value (baseline SF3B1 mutations)?
Answer: 48.8%

Question: What about the “≥24-week TI rate” value (baseline SF3B1 mutations) of the same substance?
Answer: 35.4%

Question: And the “8-week RBC-TI responders with a single continuous RBC-TI period” value (in vivo)?
Answer: 83%

Question: And the “8-week TI responders who went on to achieve 24-week TI” value (in vivo)?
Answer: Approximately 70%

Question: What about the “≥1-year TI among ≥8-week TI responders” value (in vivo) of the same substance?
Answer: 44.7% and 45%

Question: And the “≥1-year TI among ≥24-week TI responders” value (in vivo)?
Answer: 63.6% and 64%

Question: And the “≥8-week TI rate” value (mutated RNA spliceosome genes)?
Answer: 43.8%

Question: And the “≥24-week TI rate” value (mutated RNA spliceosome genes)?
Answer: 30.2%

Question: What about the “≥8-week TI rate” value (mutated epigenetic modifiers) of the same substance?
Answer: 37.7%

Question: What about the “≥24-week TI rate” value (mutated epigenetic modifiers) of the same substance?
Answer: 27.5%

Question: What about the “≥8-week TI rate” value (mutated receptors/kinases) of the same substance?
Answer: 80.0%

Question: What about the “≥24-week TI rate” value (mutated receptors/kinases) of the same substance?
Answer: 80.0%

Question: What about the “≥8-week TI rate” value [1] of the same substance?
Answer: 40.0%

Question: What about the “≥24-week TI rate” value [1] of the same substance?
Answer: 20.0%

Question: And the “Median TI duration” value (patients who achieved 24-week TI)?
Answer: 80.0 weeks

Question: And the “8-week RBC-TI rate” value (patients with RS)?
Answer: 45%

Question: What about the “24-week RBC-TI rate” value (patients with RS) of the same substance?
Answer: 33%

Question: And the “Difference vs placebo in TI ≥24 weeks” value (patients with RS)?
Answer: 28%

Question: And the “8-week RBC-TI, patients” value (patients with RS (of 73))?
Answer: 33 patients

Question: What about the “8-week RBC-TI rate” value (patients without RS) of the same substance?
Answer: 32%

Question: What about the “24-week RBC-TI rate” value (patients without RS) of the same substance?
Answer: 20%

Question: And the “Difference vs placebo in TI ≥24 weeks” value (patients without RS)?
Answer: 21%

Question: And the “8-week RBC-TI, patients” value (patients without RS (of 44))?
Answer: 14 patients

Question: What about the “8-week TI response” value [2] of the same substance?
Answer: 7/22

Question: And the “8-week TI response rate” value [2]?
Answer: (31.8) %

Question: What about the “≥24-week TI rate” value [2] of the same substance?
Answer: 9.1%

Question: And the “8-week TI response rate” value (poor-prognosis genes mutated at baseline, listed as imetelstat)?
Answer: 31.8%

Question: And the “8-week RBC-TI rate” value (prior burden >6 units/8 weeks)?
Answer: 34%

Question: What about the “8-week RBC-TI, patients” value (prior burden >6 units/8 weeks (of 56)) of the same substance?
Answer: 19 patients

Question: And the “8-week RBC-TI rate” value (prior burden ≥4 to ≤6 units/8 weeks)?
Answer: 45%

Question: And the “8-week RBC-TI, patients” value (prior burden ≥4 to ≤6 units/8 weeks (of 62))?
Answer: 28 patients

Question: What about the “Median duration of TI” value (≥1-year TI responders) of the same substance?
Answer: 123 weeks
